In paper PMC4955742 (Molecular bioSystems, 2016):
Where two headings read alike, the source gives them in different places.

Assays:
Assay in all cases: intrinsic tryptophan fluorescence quenching
Format in all cases: binding
[1] = biological target: T1, HucR (hypothetical uricase regulator), HucR-WT (Deinococcus radiodurans, UniProt Q9RV71)
T1 sequence (Q9RV71 1-181): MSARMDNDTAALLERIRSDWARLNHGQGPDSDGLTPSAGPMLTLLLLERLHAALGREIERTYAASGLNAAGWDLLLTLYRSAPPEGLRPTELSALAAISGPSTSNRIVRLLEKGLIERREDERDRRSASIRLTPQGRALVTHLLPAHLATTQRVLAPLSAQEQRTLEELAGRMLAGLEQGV

[2] = biological target: T2, HucR-E48Q (Deinococcus radiodurans, UniProt Q9RV71, E48Q)
[3] = biological target: T3, HucR-H51F (Deinococcus radiodurans, UniProt Q9RV71, H51F)
[4] = biological target: T1, HucR (hypothetical uricase regulator), HucR-WT; remark: listed apart in the source
[5] = biological target: T3, HucR-H51F; remark: listed apart in the source
[6] = biological target: T2, HucR-E48Q; remark: listed apart in the source

| Compound | Kd [1] [µM] | Kd [2] [µM] | Kd [3] [µM] | Kd [4] [µM] | Kd [5] [µM] | Kd [6] [µM] |
| --- | --- | --- | --- | --- | --- | --- |
| O=c1[nH]c(=O)c2[nH]c(=O)[nH]c2[nH]1 [urate] | 11.4 ± 2.9 | 2.2 ± 0.8 | 14.7 ± 1.2 |  |  |  |
| O=c1[nH]c(=O)c2[nH]cnc2[nH]1 [xanthine] |  |  |  | ~17 | ~17 | ~17 |
